Assay results published in PMC8837603, “Lapcin, a potent dual topoisomerase I/II inhibitor discovered by soil metagenome guided total chemical synthesis” (Nature Communications, 2022).

Assays:
Hela (Cervical) cells = experiment: cells; type: cell-based, human; settings: Homo sapiens, HeLa; cervical cancer; MTT, 48 h, 37 °C; DMEM + 10% FBS; 2,500 cells/well; absorbance 570 nm; n = 3 biologically independent
Experimental: (§1) An MTT (2-(4,5-dimethylthiazol-2-yl)−2,5-diphenyltetrazolium bromide) assay was used to determine the cytotoxicity of lapcin towards diverse cancer cell lines. Lapcin was dissolved in DMSO to make a 3.2 mg/mL working solution. For each cancer line detailed in Supplementary Table 5, cells at 80-90% confluency were counted and seeded in 96-well, flat bottom microplates and incubated at 37 °C with a 5% CO2 atmosphere. Outer wells were unused to avoid edge effects. After adhering for 24 h, the medium was sterilely aspirated and replaced with 100 µL of fresh medium containing lapcin or a control compound serially diluted at concentrations ranging from 8,000 to 0.00382 ng/mL. After 48 h (37 °C, 5% CO2), the medium was carefully removed and 110 µL of freshly prepared MTT solution (10 µL of 5 mg/mL MTT in PBS (pH 7.4) premixed with 100 µL of complete medium) was added to each well. After 3 h at 37 °C with 5% CO2, 100 µL of solubilization solution (40% DMF, 16% SDS and 2% acetic acid in H2O) was added to each well and precipitated formazan crystals were allowed to dissolve for 4 h. The absorbance of each well was then measured at 570 nm using a Tecan microplate reader.

U2OS (Bone) cells = experiment: cells; type: cell-based, human; settings: Homo sapiens, U2OS; bone cancer; MTT, 48 h, 37 °C; DMEM + 10% FBS + NEAA; 2,500 cells/well; absorbance 570 nm; n = 3 biologically independent
Experimental: as §1

HT29 cells = experiment: cells; type: cell-based, human; settings: Homo sapiens, HT-29; colon cancer; MTT, 48 h, 37 °C; DMEM + 10% FBS; 2,500 cells/well; absorbance 570 nm; n = 3 biologically independent
Experimental: as §1

HCC1806 cells = experiment: cells; type: cell-based, human; settings: Homo sapiens, HCC1806; breast cancer; MTT, 48 h, 37 °C; RPMI-1640 + 10% FBS; 2,500 cells/well; absorbance 570 nm; n = 3 biologically independent
Experimental: as §1

HCT116 cells = experiment: cells; type: cell-based, human; settings: Homo sapiens, HCT-116; colon cancer; MTT, 48 h, 37 °C; DMEM + 10% FBS; 10,000 cells/well; absorbance 570 nm; n = 3 biologically independent
Experimental: as §1

HEK293 cells = experiment: cells; type: cell-based, human; settings: Homo sapiens, HEK293; normal cell; MTT, 48 h, 37 °C; DMEM + 10% FBS; 5, 000 cells/well; absorbance 570 nm; n = 3 biologically independent
Experimental: as §1

NCI-H226 cells = experiment: cells; type: cell-based, human; settings: Homo sapiens, NCI-H226; lung cancer; MTT, 48 h, 37 °C; RPMI-1640 + 10% FBS; 10,000 cells/well; absorbance 570 nm; n = 3 biologically independent
Experimental: as §1

A549 cells = experiment: cells; type: cell-based, human; settings: Homo sapiens, A549; lung cancer; MTT, 48 h, 37 °C; DMEM + 10% FBS + NEAA; 2,500 cells/well; absorbance 570 nm; n = 3 biologically independent
Experimental: as §1

NCI-H1299 cells = experiment: cells; type: cell-based, human; settings: Homo sapiens, NCI-H1299; lung cancer; MTT, 48 h, 37 °C; RPMI-1640 + 10% FBS; 2,500 cells/well; absorbance 570 nm; n = 3 biologically independent
Experimental: as §1

MCF 7 cells = experiment: cells; type: cell-based, human; settings: Homo sapiens, MCF7; breast cancer; MTT, 48 h, 37 °C; DMEM + 10% FBS; 8,000 cells/well; absorbance 570 nm; n = 3 biologically independent
Experimental: as §1

SW480 cells = experiment: cells; type: cell-based, human; settings: Homo sapiens, SW480; colon cancer; MTT, 48 h, 37 °C; DMEM + 10% FBS; 10,000 cells/well; absorbance 570 nm; n = 3 biologically independent
Experimental: as §1

bacterial DNA gyrase = settings: ref [9],[25]; cited from earlier work
Colo205 cells = experiment: cells; type: cell-based, human; settings: Homo sapiens, COLO 205; colon cancer; MTT, 48 h, 37 °C; RPMI-1640 + 10% FBS; 2,500 cells/well; absorbance 570 nm; n = 3 biologically independent
Experimental: as §1

Molecule	IC50 (Hela (Cervical) cells)	IC50 (U2OS (Bone) cells)	IC50 (HT29 cells)	IC50 (HCC1806 cells)	IC50 (HCT116 cells)	IC50 (HEK293 cells)	IC50 (NCI-H226 cells)	IC50 (A549 cells)	IC50 (NCI-H1299 cells)	IC50 (MCF 7 cells)	IC50 (SW480 cells)	inhibition of bacterial DNA gyrase (bacterial DNA gyrase)	IC50 (Colo205 cells)
COc1cc([C@@H]2c3cc4c(cc3[C@@H](O[C@@H]3O[C@@H]5CO[C@@H](C)O[C@H]5[C@H](O)[C@H]3O)[C@H]3COC(=O)[C@H]23)OCO4)cc(OC)c1O [Etoposide]	1510 nM	1840 nM	9610 nM	3330 nM	> 54400 nM	729 nM	217 nM	79.9 nM	716 nM	333 nM	26900 nM		
albicidin												inhibit the bacterial DNA gyrase	
CC[C@@]1(O)C(=O)OCc2c1cc1n(c2=O)Cc2cc3ccccc3nc2-1 [Camptothecin]	62.6 nM	172 nM	22.3 nM	19.6 nM	129 nM	19.2 nM	28.5 nM	17.6 nM	15 nM	> 29200 nM	284 nM		95.7 nM
